Experiment [1] has as its target T1, human α1b adrenergic receptor (Homo sapiens, UniProt P35368).
T1 construct: The entire coding region of α1b (1563 bp); expressed in transfected cells
T1 sequence (P35368 1-520): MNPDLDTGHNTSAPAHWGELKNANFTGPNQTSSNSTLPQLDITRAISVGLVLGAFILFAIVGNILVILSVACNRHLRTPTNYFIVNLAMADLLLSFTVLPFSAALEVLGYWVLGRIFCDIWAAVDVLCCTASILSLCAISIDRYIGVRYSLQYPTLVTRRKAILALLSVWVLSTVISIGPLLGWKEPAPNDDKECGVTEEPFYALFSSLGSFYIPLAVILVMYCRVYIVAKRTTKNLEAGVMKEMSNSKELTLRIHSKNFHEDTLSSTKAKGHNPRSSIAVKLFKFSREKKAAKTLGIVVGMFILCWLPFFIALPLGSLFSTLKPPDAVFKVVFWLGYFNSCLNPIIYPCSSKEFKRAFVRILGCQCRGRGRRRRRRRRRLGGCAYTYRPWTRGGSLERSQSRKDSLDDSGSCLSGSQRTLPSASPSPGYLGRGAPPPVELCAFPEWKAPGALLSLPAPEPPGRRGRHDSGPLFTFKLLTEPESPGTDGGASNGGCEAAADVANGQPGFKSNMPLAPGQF
Put plainly: Radioligand binding ([3H]prazosin) at cloned human α1b adrenergic receptor. The following applies: LM(tk-) cell membranes, read-out: Binding affinities (pKi) α1b (converted). How it is done:
(§1) First, conditions were determined which allowed measurement of the specific binding of a compound known to bind to the receptor. Then, the binding of the known compound to the receptor in membrane preparations was evaluated in the presence of several different concentrations of the test compound.
(§2) These cell lines were prepared by transfecting the cloned cDNA or cloned genomic DNA or constructs containing both genomic DNA and cDNA encoding the human receptors as described below.
α1b Human Adrenergic Receptor: The entire coding region of α1b (1563 bp), including 200 base pairs of 5′ untranslated sequence (5′ UT) and 600 bp of 3′ untranslated sequence (3′ UT), was cloned into the EcoRI site of pCEXV-3 eukaryotic expression vector. The construct involved ligating the full-length EcoRI brainstem cDNA fragment from λ ZapII into the expression vector. Stable cell lines were selected as described above. Membranes were harvested and assayed for their ability to bind [^3H]prazosin as described below (see Radioligand Binding assays). The cell line used herein was designated L-α1B and was deposited with the American Type Culture Collection, 12301 Parklawn Drive, Rockville, Md. 20852, U.S.A. under the provisions of the Budapest Treaty for the International Recognition of the Deposit of Microorganisms for the Purposes of Patent Procedure. The cell line L-α1B was accorded ATCC Accession No. CR 11139, on Sep. 29, 1992.
(§3) Radioligand Binding Assays for α1 Human Adrenergic Receptors: Transfected cells from culture flasks were scraped into 5 ml of 5 mM Tris-HCl, 5 mM EDTA, pH 7.5, and lysed by sonication. The cell lysates were centrifuged at 1000 rpm for 5 min at 4° C., and the supernatant was centrifuged at 30,000×g for 20 min at 4° C. The pellet was suspended in 50 mM Tris-HCl, 1 mM MgCl2, and 0.1% ascorbic acid at pH 7.5. Binding of the α1, antagonist [^3H]prazosin (0.5 nM, specific activity 76.2 Ci/mmol) to membrane preparations of LM(tk-) cells was done in a final volume of 0.25 ml and incubated at 37° C. for 1 hour. Nonspecific binding was determined in the presence of 10 μM phentolamine. The reaction was stopped by filtration through GF/B filters using a cell harvester.

Experiment [2] addresses T2, human α1d adrenergic receptor (Homo sapiens, UniProt P25100).
T2 construct: The entire coding region. of α1d (1719 bp); expressed in transfected cells
T2 sequence (P25100 1-572): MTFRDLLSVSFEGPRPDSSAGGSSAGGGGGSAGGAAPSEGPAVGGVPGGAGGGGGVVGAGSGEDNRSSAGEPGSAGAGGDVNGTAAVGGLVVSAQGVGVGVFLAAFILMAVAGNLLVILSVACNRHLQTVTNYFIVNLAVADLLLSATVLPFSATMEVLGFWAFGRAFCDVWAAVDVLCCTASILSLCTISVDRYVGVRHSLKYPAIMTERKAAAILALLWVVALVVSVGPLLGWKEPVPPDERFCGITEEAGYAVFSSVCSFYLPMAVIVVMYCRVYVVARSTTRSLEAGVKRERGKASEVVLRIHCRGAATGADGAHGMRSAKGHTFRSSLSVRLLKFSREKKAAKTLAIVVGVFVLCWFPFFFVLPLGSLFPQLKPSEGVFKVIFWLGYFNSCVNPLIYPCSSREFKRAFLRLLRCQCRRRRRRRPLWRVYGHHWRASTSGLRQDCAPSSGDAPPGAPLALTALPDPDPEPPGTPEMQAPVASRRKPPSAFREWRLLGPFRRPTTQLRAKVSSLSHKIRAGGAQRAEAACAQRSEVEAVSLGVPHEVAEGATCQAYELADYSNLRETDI
Put plainly: Radioligand binding ([3H]prazosin) at cloned human α1d adrenergic receptor. The following applies: LM(tk-) cell membranes, read-out: Binding affinities (pKi) α1d (converted). How it is done:
as §1, §2
α1d Human Adrenergic Receptor: The entire coding region. of α1d (1719 bp), including 150 base pairs of 5′ untranslated sequence (5′ UT) and 300 bp of 3′ untranslated sequence (3′ UT), was cloned into the BamHI and ClaI sites of the polylinker-modified eukaryotic expression vector pCEXV-3, called EXJ.HR. The construct involved the ligation of partial overlapping human lymphocyte genomic and hippocampal cDNA clones: 5′ sequence were contained on a 1.2 kb SmaI-XhoI genomic fragment (the vector-derived BamHI site was used for subcloning instead of the internal insert-derived SmaI site) and 3′ sequences were contained on a 1.3 kb XhoI-ClaI cDNA fragment (the ClaI site was from the vector polylinker). Stable cell lines were obtained by cotransfection with the plasmid α1A/EXJ (expression vector containing the α1a receptor gene (old nomenclature)) and the plasmid pGCcos3neo (plasmid containing the aminoglycoside transferase gene) into LM(tk-) cells using the calcium phosphate technique. The cells were grown, in a controlled environment (37° C., 5% CO2), as monolayers in Dulbecco's modified Eagle's Medium (GIBCO, Grand Island, N.Y.) containing 25 mM glucose and supplemented with 10% bovine calf serum, 100 units/ml penicillin g, and 100 μg/ml streptomycin sulfate. Stable clones were then selected for resistance to the antibiotic G-418 (1 mg/ml), and membranes were harvested and assayed for their ability to bind [^3H]prazosin as described below (see Radioligand Binding assays).
The cell line expressing the human α1d receptor used herein was designated L-α1A (old nomenclature) and was deposited with the American Type Culture Collection, 12301 Parklawn Drive, Rockville, Md. 20852, U.S.A. under the provisions of the Budapest Treaty for the International Recognition of the Deposit of Microorganisms for the Purposes of Patent Procedure. The cell line expressing the human α1d receptor, was accorded ATCC Accession No. CRL 11138, and was deposited on Sep. 25, 1992.
as §3

Turning to `O=C1CC2(CCCC2)CC(=O)N1CCN1CCN(c2cc(F)ccc2F)CC1` [Compound 6, 8-{2-[4-(2,5-Difluorophenyl)piperazin-1-yl]ethyl}-8-azaspiro[4.5]decane-7,9-dione], the Ki in experiment [1] was 50.1 nM; in experiment [2] it was 1 nM.

Consider `Cc1ccc(Cl)cc1N1CCN(CCN2C(=O)CC3(CCCC3)CC2=O)CC1` [Compound 13, 8-{2-[4-(5-Chloro-2-methylphenyl)piperazino]ethyl}-8-azaspiro [4.5]decane-7,9-dione], for which the values for the Ki in experiment [1] and in experiment [2] were 3160 nM and 39.8 nM, respectively.

As for `C[C@@H](CN1CCN(c2cc(F)ccc2F)CC1)N1C(=O)CC2(CCCC2)CC1=O` [Compound 10, 8-{(1S)-2-[4-(2,5-Difluorophenyl)piperazin-1-yl]-1-methylethyl}-8-azaspiro[4.5]decane-7,9-dione], the Ki in experiment [1] was 3980 nM; in experiment [2] it was 50.1 nM.

For `O=C1CC2(CCCC2)CC(=O)N1CCN1CCN(c2ccc(F)c(F)c2)CC1` [Compound 15, 8-{2-[4-(3,4-Difluorophenyl)piperazin-1-yl]ethyl}-8-azaspiro[4.5]decane-7,9-dione], the Ki in experiment [1] was 1580 nM; in experiment [2], 7.94 nM.

`C[C@H](CN1CCN(c2cc(F)ccc2F)CC1)N1C(=O)CC2(CCCC2)CC1=O` [Compound 8, 8-{(1R)-2-[4-(2,5-Difluorophenyl)piperazin-1-yl]-1-methylethyl}-8-azaspiro[4.5]decane-7,9-dione]: the figures for the Ki in experiment [1] and in experiment [2] were 63.1 nM and 0.794 nM, respectively.

For `O=C1CC2(CCCC2)CC(=O)N1CCN1CCN(c2c(F)cccc2F)CC1` [Compound 14, 8-{2-[4-(2,6-Difluorophenyl)piperazino]ethyl}-8-azaspiro[4.5]decane-7,9-dione], the Ki in experiment [1] is 126 nM; in experiment [2] it was 3.98 nM.

With `COc1ccc(F)cc1C1CCN(CCN2C(=O)CC3(CCCC3)CC2=O)CC1` [Compound 12, 8-{2-[4-(5-Fluoro-2-methoxyphenyl)piperidin-1-yl]ethyl}-8-azaspiro[4.5]decane-7,9-dione], the Ki in experiment [1] was 63.1 nM; in experiment [2], 1 nM.

In the case of `O=C1CC2(CCCC2)CC(=O)N1CCN1CCN(c2cc(F)c(F)cc2F)CC1` [Compound 7, 8-{2-[4-(2,4,5-Trifluorophenyl)piperazin-1-yl]ethyl}-8-azaspiro[4.5]decane-7,9-dione], the Ki in experiment [1] is 398 nM; in experiment [2], 2 nM.

Values taken from patent US6706716B2, “Compounds specific for the human α1d adrenergic receptor and uses thereof” (Synaptic Pharmaceutical Corporation, priority 1998, dated 2004).
